Where a name gives a salt, the structure may show the parent alone. Read-outs that look alike come from different tables or passages of the source.
Key:
[1] = system: mice exposed to intra-abdominally induced chemical pain; assay: animal or person; format: in vivo, mouse
Protocol: (§1) The ED50 was the dose which reduced the total number of writhes by 50%. […] A modification of the tail flick test described by Dewey and Harris (in: S. Ehrenpreis and A. Neidle (eds.), Methods in Narcotics Research, Marcel Dekker, Inc., New York, 1975, pp. 101-108) was used to measure the tail flick reaction times following oral or subcutaneous administration of the compounds of formula I of the invention.
(§2) Doses were calculated as the salts of all the compounds. Injection volume was 0.1 ml/10 g body weight. For each test compound, ED 50 values were calculated separately for each test. Log dose regression analysis and Fieller's Theorem were used to compute the ED 50 and its 95 percent confidence limits. The analysis was performed on the tail flick latency scores of all mice that were treated with a test compound. For any given test, the average tail flick latency score of the vehicle control group was calculated and a latency value, Z, was derived from this, as follows: [formula] where the cutoff time was 10 seconds. […] The value of Z was entered as an interpolate into the regression analysis so that an ED50, defined as the dose that increased tail flick latencies by 50 percent of the maximum possible response, could be computed.

[2] = system: mice exposed to radiant heat stimulus on the tail; assay: animal or person; format: in vivo, male mice (Charles River, CF-1/CD)
Description: as §1
More specifically, groups of 10 male mice (Charles River, CF-1/CD, 18-22 gm) were placed in individual stainless steel, ventilated, cylindrical restrainers with their tails protruding through a hole at one end. The restraining tubes were positioned on a sliding platform so that each mouse, in turn, could be exposed to a high intensity lamp. The rays from the lamp were focused by means of a parabolic reflector directly on the tail. The intensity of the heat was adjusted by means of a rheostat so that untreated mice would responsed in approximately 2 to 4 seconds. When the endpoint response occurred (a sudden twitch of the tail, removing it from the path of the radiant heat stimulus), the experimenter stopped a reaction time clock. In the event that no response occurred within 10 seconds (the cutoff time), the tester terminated the trial and assigned a latency score of 10 seconds for that trial. The reaction time of each mouse was determined before and again 30,60,90 and 120 minutes after treatment.
Each group of 10 mice was treated orally or subcutaneously with vehicle (normal saline) or with logarithmically spaced doses of the test compounds. For most compounds, four dose levels, which were studied in a single test session, were sufficient to provide a satisfactory estimate of the ED50. Occasionally, five or six does levels were needed. […] Because of this, some vehicle control groups and dosed groups consisted of a total of 20 mice, rather than 10.
as §2

[3] = mouse, oral, dose which reduced the total number of writhes by 50%, doses as the salts, read-out: ED50 Writhing Oral
[4] = sc, mouse, subcutaneous, dose which reduced the total number of writhes by 50%, doses as the salts, read-out: ED50 Writhing Subcu.
[5] = mouse, oral, dose that increased tail flick latencies by 50 percent of the maximum possible response, cutoff 10 seconds, doses as the salts, read-out: ED50 Tail Flick Oral
[6] = sc, mouse, subcutaneous, dose that increased tail flick latencies by 50 percent of the maximum possible response, cutoff 10 seconds, doses as the salts, read-out: ED50 Tail Flick Subcu.
[7] = Mus musculus, po, read-out: ED50 Writhing Oral
[8] = Mus musculus, sc, read-out: ED50 Writhing Subcu.
[9] = Mus musculus, po, read-out: ED50 Tail Flick Oral
[10] = Mus musculus, sc, read-out: ED50 Tail Flick Subcu.

| Compound | ED50 [1, 3] [mg/kg] | ED50 [1, 4] [mg/kg] | ED50 [2, 5] [mg/kg] | ED50 [2, 6] [mg/kg] | ED50 [1, 7] [mg/kg] | ED50 [1, 8] [mg/kg] | ED50 [2, 9] [mg/kg] | ED50 [2, 10] [mg/kg] |
| --- | --- | --- | --- | --- | --- | --- | --- | --- |
| CC(O)c1ccc2c(c1)[C@@]13CCCC[C@H]1[C@@H](C2)N(C)CC3 (stereo partly drawn) [(-)-α-17-dimethylmorphinan-3-methanol hydrochloride] | 0.36 | 0.24 | 1.1 | 1.3 |  |  |  |  |
| CC(=O)c1ccc2c(c1)[C@@]13CCCC[C@H]1[C@@H](C2)N(CCC#N)CC3.Cl [(-)-3-acetyl-17-morphinanpropanenitrile hydrochloride] | 4.4 | 0.57 | 51.2 | 6.1 |  |  |  |  |
| CN1CC[C@]23CCCC[C@H]2[C@H]1Cc1ccc(C(C)(C)O)cc13 [(-)-α,α-17-trimethylmorphinan-3-methanol hydrochloride] | 2.5 | 1.05 | 12 | 4.3 |  |  |  |  |
| CC(=O)c1ccc2c(c1)[C@@]13CCCC[C@H]1[C@@H](C2)N(CC=C(C)C)CC3.O.O=C(O)C(O)C(O)C(=O)O [(-)-1-[17-(3-methyl-2-butenyl)morphinan-3-yl]ethanone d-tartrate monohydrate] |  |  |  |  | 43 | 5.9 | 115 | ~50 |
| CN1CC[C@]23CCCC[C@H]2[C@H]1Cc1ccc(C(=O)c2ccccc2)cc13.O=C(O)C(O)C(O)C(=O)O [(-)-(17-methylmorphinan-3-yl)phenylmethanone d-tartrate] |  |  |  |  | 35.5 | 22.2 | > 200 | > 50 |
| CC(=O)c1ccc2c(c1)[C@@]13CCCC[C@H]1[C@@H](C2)N(CCc1ccccc1)CC3 [(-)-1-[N-(2-phenethyl)morphinan-3-yl]ethanone d-tartrate hemihydrate] | 1.2 | 0.39 | 10.4 | 1.8 |  |  |  |  |
| CC(=O)c1ccc2c(c1)[C@@]13CCCC[C@H]1[C@@H](C2)N(CC1CCC1)CC3.Cl [(-)-3-acetyl-N-cyclobutylmethylmorphinan hydrochloride] | 5.7 | 1.2 | 27.6 | 4.9 |  |  |  |  |
| CC(=O)c1ccc2c(c1)[C@@]13CCCC[C@H]1[C@@H](C2)N(CC1CC1)CC3.Cl [(-)-1-[N-(cyclopropylmethyl)morphinan-3-yl]-ethanone hydrochloride] | 2.1 | 0.18 | 1.5 | 2.3 |  |  |  |  |
| CC(=O)c1ccc2c(c1)C[C@@H]1[C@@H]3CCCC[C@]23CCN1C.O=C(O)C(O)C(O)C(=O)O [(-)-2-acetyl-N-methylmorphinan d-tartrate] |  |  |  |  | 22.3 | 4 | 75 | > 50 |
| CC(=O)c1ccc2c(c1)[C@@]13CCCC[C@H]1[C@@H](C2)N(C)CC3.O=C(O)C(O)C(O)C(=O)O [(-)-3-acetyl-N-methylmorphinan d-tartrate] |  |  |  |  | 0.5 | 0.08 | 2 | 3.9 |
| CCC(=O)c1ccc2c(c1)[C@@]13CCCC[C@H]1[C@@H](C2)N(C)CC3.Cl [(-)-1-(17-methylmorphinan-3-yl)-1-propanone hydrochloride] | 1.9 | 0.22 | 12 | 2.3 |  |  |  |  |
